These results are taken from patent US20240368131A1, “OXOINDOLINYL AMIDE DERIVATIVES FOR INHIBITING NLRP3 AND USES THEREOF” (VENTUS THERAPEUTICS U.S. INC., priority 2022, published 2024).

Format in all cases: cell-based
Experiment [1] deals with T1, human NLRP3 (Homo sapiens, UniProt Q96P20). Kind of experiment: Human PBMC NLRP3 Assay (IL-1β release). Details: Human PBMCs (Normal): iXCells Cat #10HU-003; host or cells: human PBMCs (normal donors), LPS-primed, nigericin-stimulated. To be noted: human PBMCs. As for the experimental part: Reagents: Human PBMCs (Normal): iXCells Cat #10HU-003; RPMI 1640 medium (ATCC modification): ThermoFisher Cat #A1049101 (Complete Media: 10% FBS, 1% Pen/Strep; Assay Media: 1% Pen/Strep; 75 cm^2 cell culture flask: Corning Cat #430641U; 96-well cell culture plates: VWR Cat #10062-900; LPS (E. coli 026:B6): Sigma Cat #L2654, stock 5 mg/mL in PBS; Nigericin sodium salt: Sigma Cat #N7143, stock 5 mg/mL (6.7 mM) in ethanol.
T1 sequence (Q96P20 whole entry): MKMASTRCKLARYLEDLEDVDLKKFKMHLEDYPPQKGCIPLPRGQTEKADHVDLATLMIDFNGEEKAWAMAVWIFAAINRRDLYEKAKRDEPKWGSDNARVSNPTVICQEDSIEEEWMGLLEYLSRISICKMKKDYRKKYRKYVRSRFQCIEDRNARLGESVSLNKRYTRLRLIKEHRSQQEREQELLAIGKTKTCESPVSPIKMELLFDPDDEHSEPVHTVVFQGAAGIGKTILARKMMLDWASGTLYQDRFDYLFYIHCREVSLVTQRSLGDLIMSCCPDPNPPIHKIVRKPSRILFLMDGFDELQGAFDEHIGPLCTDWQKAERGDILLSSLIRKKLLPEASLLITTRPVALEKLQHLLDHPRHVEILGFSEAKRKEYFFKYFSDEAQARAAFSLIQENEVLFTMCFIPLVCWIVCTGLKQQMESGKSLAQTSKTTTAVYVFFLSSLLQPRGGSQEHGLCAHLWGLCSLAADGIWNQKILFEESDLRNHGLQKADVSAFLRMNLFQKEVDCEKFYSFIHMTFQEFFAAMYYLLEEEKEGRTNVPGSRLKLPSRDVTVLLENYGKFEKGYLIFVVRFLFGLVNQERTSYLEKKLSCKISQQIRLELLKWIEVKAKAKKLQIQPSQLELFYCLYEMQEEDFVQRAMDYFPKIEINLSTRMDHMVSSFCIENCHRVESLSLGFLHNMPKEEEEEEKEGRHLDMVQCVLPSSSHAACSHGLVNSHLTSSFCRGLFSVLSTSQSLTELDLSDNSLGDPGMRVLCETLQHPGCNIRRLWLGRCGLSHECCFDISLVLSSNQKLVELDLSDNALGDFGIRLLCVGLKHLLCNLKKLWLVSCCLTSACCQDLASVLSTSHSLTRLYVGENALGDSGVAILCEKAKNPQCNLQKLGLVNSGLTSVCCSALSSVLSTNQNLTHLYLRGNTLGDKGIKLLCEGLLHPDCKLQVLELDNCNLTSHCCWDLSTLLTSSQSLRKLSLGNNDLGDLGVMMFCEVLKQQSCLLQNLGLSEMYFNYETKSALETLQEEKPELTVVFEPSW
Cryopreserved PBMCs (10×10^6 cells/vial) were rapidly thawed in a 37° C. water bath for 2 min and transferred in 10 mL Complete Media. Cells were then centrifuged at 1200 RPM for 5 min, resuspended in 40 mL of Complete Media, transferred in a 75 cm^2 cell culture flask and incubated overnight at 37° C. with 5% CO2. The next day, PBMCs were centrifuged, resuspended in 30 mL Assay Media (˜3.3×10^5 cells/mL) and distributed at 100 μL/well in a 96-well cell culture plate. 50 μl of Assay Media containing 300 ng/ml of LPS was then added to each well except for the untreated control wells (50 μl Assay Media without LPS). Cells were then primed with LPS for 4 h at 37° C. with 5% CO2. A concentration response curve (CRC) was prepared of 500× test compound in 100% dimethyl sulfoxide (DMSO). The CRC was then diluted 1:25 in Assay Media and then further diluted 1:5 in Assay Media resulting in a final 4× CRC in 0.8% DMSO/Assay Media. 50 μL/well of 4× test compound CRC or vehicle (0.8% DMSO/Assay Media) was then transferred into each well and subsequently incubated for 30 min at 37° C. with 5% CO2. Cells were stimulated by adding 4 μL of 500 μM Nigericin, for 1 h at 37° C. with 5% CO2 Plates were then centrifuged at 1200 RPM for 5 min and 100 μl of the media was transferred to a clean 96-well storage plate and stored at −80° C. until analyzed. Cytokine measurements were performed using the mesoscale platform. Compounds were added 30 minutes before priming the cells with LPS when TNFα was required to be quantified in the cytokine panel to confirm selectivity.
Human PBMC NLRP3 Assay: A represents an IC50 value <0.3 μM; B represents an IC50 value ≥0.3 μM and <0.5 μM; C represents an IC50 value ≥0.5 μM and <1.0 μM; D represents an IC50 value >1.0 μM and <10 μM; E represents an IC50 value >10 μM.

Experiment [2] addresses T1, human NLRP3. Kind of experiment: Human Whole Blood (hWB) NLRP3 Assay (IL-1β MSD). Conditions: LPS 1 μg/ml 4.5 h, ATP 30 min, class symbols. As for the experimental part: Human whole blood was drawn from healthy volunteers after obtaining written informed consent. Heparin lithium coated tubes were used to collect blood from volunteers. Blood samples were distributed on 96 well plates using 90 μl per well. Priming was performed by adding 5 μl of LPS (O26:B6; Sigma L-2654) at a final concentration of 1 μg/ml for 4.5 hours in a humidified incubator with 37° C., 5% CO2. Thirty minutes prior to NLRP3 activation, 5 μl of a 20× compound solution or vehicle (2% DMSO) was added to each well and plates were incubated on a shaker (450 rpm) in a humidified incubator with 37° C., 5% CO2. Activation was then performed by adding 3.3 μl of a 31× ATP solution per well. At the end of the 30 minutes stimulation, the plates were centrifuged (800 g, 10 min, room temperature) and the plasma from each well was frozen at −80° C. IL-1β levels in the supernatant were analyzed using a mesoscale discovery assay (MSD K151TUK) according to the manufacturers' instructions.
hWB IL-1β Assay: A represents an IC50 value <0.3 μM; B represents an IC50 value ≥0.3 μM and <0.5 μM; C represents an IC50 value ≥0.5 μM and <1.0 μM; D represents an IC50 value >1.0 μM.

A further experiment addresses T2, mouse NLRP3 (Mus musculus, UniProt Q8R4B8).
T2 construct: Blood was drawn from female CD1 mice (9 to 10 weeks) by cardiac puncture; from tissue; host or cells: whole blood of female CD1 mice, LPS-primed, ATP-stimulated
Briefly: Mouse Whole Blood (mWB) NLRP3 Assay (IL-1β MSD). Conditions: CD1 mouse whole blood, LPS 1 μg/mL 5 h, ATP 5 mM; class symbols. As for the experimental part: Reagents: The following reagents were used: blood collection tubes (Heparin); U-bottom 96-well tissue culture (Falcon 353077); HBSS for LPS, ATP and compound dilutions (Gibco 24020-117); and LPS, E. coli serotype 026:B6 (Sigma L-2654).
Mouse IL-1b MSD assay: Blood was drawn from female CD1 mice (9 to 10 weeks) by cardiac puncture. Blood was plated (135 μL) per well in 96-well U-bottom plates. 7.5 μL of 20× LPS (20 μg/mL, final concentration of 1 μg/mL) was added and mixed by gentle pipetting, and the mixture was incubated in a TC incubator for five hours. 7.5 μL of 20× compound or vehicle per well was added and mixed by gentle pipetting. Compounds were diluted 1/50 in HBSS to prepare a 20× dilution curve in 2% DMSO. The mixture was incubated for 30 minutes in a TC incubator with shaking (450 rpm). 5 μl of 31× ATP (155 mM, final concentration of 5 mM) was added and mixed by gentle pipetting. The mixture was incubated in a TC incubator for 30 minutes with shaking (450 rpm). The plate was centrifuged for 10 minutes at 800×g and ˜70 μL of plasma was removed. Plasma was frozen if required. Mouse IL-1b was analyzed with IL-1b MSD assay (K152TUK). […]
mWB IL-1β Assay: A represents an IC50 value <0.3 μM; B represents an IC50 value ≥0.3 μM and <0.5 μM; C represents an IC50 value ≥0.5 μM and <1.0 μM; D represents an IC50 value ≥1.0 μM.

Setting [3] is: LPS priming 4 h, nigericin stimulation 1 h, class symbols.

T2 sequence (Q8R4B8 whole entry): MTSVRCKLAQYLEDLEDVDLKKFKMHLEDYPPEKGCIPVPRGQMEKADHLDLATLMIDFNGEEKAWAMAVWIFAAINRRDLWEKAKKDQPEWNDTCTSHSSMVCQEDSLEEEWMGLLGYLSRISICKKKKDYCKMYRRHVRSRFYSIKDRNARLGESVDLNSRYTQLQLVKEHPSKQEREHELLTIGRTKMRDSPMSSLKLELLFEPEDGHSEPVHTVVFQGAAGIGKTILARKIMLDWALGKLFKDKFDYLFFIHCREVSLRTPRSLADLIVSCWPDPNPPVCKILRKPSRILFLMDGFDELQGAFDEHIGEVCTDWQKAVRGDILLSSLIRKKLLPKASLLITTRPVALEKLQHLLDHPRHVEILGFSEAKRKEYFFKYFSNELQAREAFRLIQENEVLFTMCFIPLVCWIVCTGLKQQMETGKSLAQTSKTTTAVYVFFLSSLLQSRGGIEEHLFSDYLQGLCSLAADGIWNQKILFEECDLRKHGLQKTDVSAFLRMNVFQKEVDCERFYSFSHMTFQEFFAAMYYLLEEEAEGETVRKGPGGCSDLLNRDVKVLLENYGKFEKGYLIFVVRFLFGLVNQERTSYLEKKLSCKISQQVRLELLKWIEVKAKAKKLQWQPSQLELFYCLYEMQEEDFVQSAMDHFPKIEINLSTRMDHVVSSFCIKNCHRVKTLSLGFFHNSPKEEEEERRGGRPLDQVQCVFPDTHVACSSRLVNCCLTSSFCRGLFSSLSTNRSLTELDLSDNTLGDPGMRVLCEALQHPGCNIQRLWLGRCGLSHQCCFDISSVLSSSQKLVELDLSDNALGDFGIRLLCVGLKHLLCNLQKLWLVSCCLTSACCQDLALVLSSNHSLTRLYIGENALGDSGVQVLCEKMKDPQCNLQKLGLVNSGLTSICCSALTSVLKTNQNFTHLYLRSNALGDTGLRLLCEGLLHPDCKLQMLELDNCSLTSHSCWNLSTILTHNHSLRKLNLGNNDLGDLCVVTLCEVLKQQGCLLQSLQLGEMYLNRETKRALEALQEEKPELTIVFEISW

On to `CC1(C)C(=O)N(CC(=O)NC2(CCC(=O)O)CCOC2)c2ccc(Br)cc21` (racemic) [Rac-3, 3-(3-(2-(5-bromo-3,3-dimethyl-2-oxoindolin-1-yl)acetamido)tetrahydrofuran-3-yl)propanoic acid], for which the IC50 (commonly the concentration that gives 50% inhibition) is less than 0.3 µM against human NLRP3 [1] (setting [3]) and 0.5 to 1 µM against human NLRP3 [2].

Molecule `C[C@H](NC(=O)CN1C(=O)C(C)(C)c2c(F)c(C(F)(F)F)cc(F)c21)[C@@H](C)CC(=O)O` (single isomer, unassigned) [67C*] showed a 50% inhibitory concentration (IC50) on human NLRP3 [2] greater than 1 µM.

Regarding `C[C@H](CC(=O)O)[C@@H](C)NC(=O)CN1C(=O)C(C)(C)c2c(F)c(C(F)(F)F)cc(F)c21` (single isomer, unassigned) [67D*], the IC50 against human NLRP3 [2] is 0.3 to 0.5 µM.

Regarding `C[C@@H](CC(=O)O)[C@@H](C)NC(=O)CN1C(=O)C(C)(C)c2c1ccc(C1CC1)c2F` (single isomer, unassigned) [Compound 58A*], the IC50 on human NLRP3 [1] (setting [3]) was less than 0.3 µM; against human NLRP3 [2], 0.5 to 1 µM.

`CC1(C)C(=O)N(CC(=O)NCCCC(=O)O)c2ccc(Cl)cc21` [Compound 4, 4-(2-(5-chloro-3,3-dimethyl-2-oxoindolin-1-yl)acetamido)butanoic acid] showed a 50% inhibitory concentration (IC50) against human NLRP3 [2] greater than 1 µM.

For `CC1(C)C(=O)N(CC(=O)N[C@@H]2CCCN(c3nnn[nH]3)C2)c2ccc(Br)cc21` [Compound 11A, (R)-N-(1-(1H-tetrazol-5-yl)piperidin-3-yl)-2-(5-bromo-3,3-dimethyl-2-oxoindolin-1-yl)acetamide], the IC50 was greater than 1 µM at human NLRP3 [2] and less than 0.3 µM at mouse NLRP3.

In the case of `CC1(C)C(=O)N(CC(=O)NCCCC(=O)O)c2ccc(Br)c(F)c21` [Compound 21, 4-(2-(5-bromo-4-fluoro-3,3-dimethyl-2-oxoindolin-1-yl)acetamido)butanoic acid], the IC50 on human NLRP3 [1] (setting [3]) and on human NLRP3 [2] was less than 0.3 µM each time.

In the case of `CC1(C)C(=O)N(CC(=O)NCCCC(=O)O)c2ccc(I)cc21` [Compound 22, 4-(2-(5-iodo-3,3-dimethyl-2-oxoindolin-1-yl)acetamido)butanoic acid], the IC50 at human NLRP3 [1] (setting [3]) and at human NLRP3 [2] was less than 0.3 µM throughout.

With `CC1(C)C(=O)N(CC(=O)NCCCC(=O)O)c2c(F)cc(Br)cc21` [Compound 24, 4-(2-(5-bromo-7-fluoro-3,3-dimethyl-2-oxoindolin-1-yl)acetamido)butanoic acid], the IC50 against human NLRP3 [1] (setting [3]) is less than 0.3 µM; against human NLRP3 [1] (LPS priming, nigericin stimulation, numeric values of Tables C1-C4), 0.02 µM; against mouse NLRP3, less than 0.3 µM.

At mouse NLRP3, `C[C@H]1C[C@@H](NC(=O)CN2C(=O)C(C)(C)c3cc(Br)cc(O)c32)CN(c2nnn[nH]2)C1` [Compound 26, 2-(5-bromo-7-hydroxy-3,3-dimethyl-2-oxoindolin-1-yl)-N-((3R,5S)-5-methyl-1-(1H-tetrazol-5-yl)piperidin-3-yl)acetamide] gave an IC50 of 0.5 to 1 µM.

`CC1(C)C(=O)N(CC(=O)NCCCC(=O)O)c2c(O)cc(I)cc21` [Compound 28, 4-(2-(7-hydroxy-5-iodo-3,3-dimethyl-2-oxoindolin-1-yl)acetamido)butanoic acid]: the IC50 against human NLRP3 [1] (setting [3]) is less than 0.3 µM; against human NLRP3 [2], greater than 1 µM.

The molecule `CC1(C)C(=O)N(CC(=O)NCCCc2nnn[nH]2)c2c(O)cc(C3CC3)cc21` [Compound 29, N-(3-(1H-tetrazol-5-yl)propyl)-2-(5-cyclopropyl-7-hydroxy-3,3-dimethyl-2-oxoindolin-1-yl)acetamide] registered an IC50 against human NLRP3 [2] greater than 1 µM.

For `CN(CCCC(=O)O)C(=O)CN1C(=O)C(C)(C)c2cc(Br)cc(O)c21` [Compound 30, 4-(2-(5-bromo-7-hydroxy-3,3-dimethyl-2-oxoindolin-1-yl)-N-methylacetamido)butanoic acid], the IC50 against human NLRP3 [1] (setting [3]) is less than 0.3 µM; at human NLRP3 [2], greater than 1 µM.

For the molecule `CC(C)(CCC(=O)O)NC(=O)CN1C(=O)C(C)(C)c2cc(Br)cc(O)c21` [Compound 31, 4-(2-(5-bromo-7-hydroxy-3,3-dimethyl-2-oxoindolin-1-yl)acetamido)-4-methylpentanoic acid], the figures for the IC50 at human NLRP3 [1] (setting [3]) and against human NLRP3 [2] were less than 0.3 µM and 0.5 to 1 µM, respectively.

On human NLRP3 [2], `CC(C)(CCc1nnn[nH]1)NC(=O)CN1C(=O)C(C)(C)c2cc(Br)cc(O)c21` [Compound 32, 2-(5-bromo-7-hydroxy-3,3-dimethyl-2-oxoindolin-1-yl)-N-(2-methyl-4-(1H-tetrazol-5-yl)butan-2-yl)acetamide] gave an IC50 greater than 1 µM.

Take `CC1(C)C(=O)N(CC(=O)NCCCc2nnn[nH]2)c2c(O)cc(Br)cc21` [Compound 33, N-(3-(1H-tetrazol-5-yl)propyl)-2-(5-bromo-7-hydroxy-3,3-dimethyl-2-oxoindolin-1-yl)acetamide]: the IC50 is less than 0.3 µM against human NLRP3 [1] (setting [3]) and greater than 1 µM against human NLRP3 [2].

As to `CC1(C)C(=O)N(CC(=O)NCC2(CC(=O)O)CC2)c2c(O)cc(Br)cc21` [Compound 35, 2-(1-((2-(5-bromo-7-hydroxy-3,3-dimethyl-2-oxoindolin-1-yl)acetamido)methyl)cyclopropyl)acetic acid], the half-inhibitory concentration (IC50) against human NLRP3 [1] (setting [3]) is less than 0.3 µM; against human NLRP3 [2], greater than 1 µM.

On to `C[C@@H](CCC(=O)O)NC(=O)CN1C(=O)C(C)(C)c2cc(Br)cc(O)c21` [Compound 41B, (S)-4-(2-(5-bromo-7-hydroxy-3,3-dimethyl-2-oxoindolin-1-yl)acetamido)pentanoic acid], for which the figures for the IC50 against human NLRP3 [1] (setting [3]) and on human NLRP3 [2] were less than 0.3 µM and greater than 1 µM, respectively.

Take `CC1(C)C(=O)N(CC(=O)NCCCC(=O)O)c2c(O)cc(Cl)cc21` [Compound 47, 4-(2-(5-chloro-7-hydroxy-3,3-dimethyl-2-oxoindolin-1-yl)acetamido)butanoic acid]: the IC50 against human NLRP3 [2] was 0.3 to 0.5 µM.

On human NLRP3 [2], `C[C@H](CNC(=O)CN1C(=O)C(C)(C)c2c(F)c(C3CC3)cc(F)c21)CC(=O)O` [Compound 61B, (S)-4-(2-(5-cyclopropyl-4,7-difluoro-3,3-dimethyl-2-oxoindolin-1-yl)acetamido)-3-methylbutanoic acid] showed an IC50 of 0.5 to 1 µM.
